{
  "source": "patent US20130225694A1",
  "about": "“COMPOSITIONS AND METHODS OF INHIBITING RETINAL DEGENERATION” (Oklahoma Medical Research Foundation, priority 2012, published 2013)",
  "key": {"[1]": {"tested_on": "cone photoreceptors", "assay": "Cone function by single-flash photopic and flicker-flash ERG in rats", "assay_type": "in vivo, rat", "conditions": "50 mg/kg, 60 minutes after administration, rod-suppressing background", "method": "To evaluate cone function under conditions in which rod recovery is suppressed, rats were injected with PBN (50 mg/kg) or saline 60 minutes prior to recording single-flash photopic and flicker-flash ERG recordings. Rats were placed under a steady adapting field of 1.7 log cd·s/m^2 for at least 7 minutes. A single flash of 3.3 log cd·s/m^2 was presented under the same adapting field to elicit a maximal cone response. Cone responses were further evaluated by presenting 1.2 log cd·s/m^2 stimuli flickering at frequencies of 3-, 10-, 20-, and 30-Hz under the same adapting field.\nTo assess the effect of PBN administration on cone function under conditions when rod recovery was suppressed, single- and flicker-flash ERG recordings were performed under a steady, rod-suppressing background illumination 60 minutes after PBN administration."}, "[2]": {"biological_target": "T1, LRAT (Rattus norvegicus, UniProt Q9JI61)", "T1 construct": "from tissue; host or cells: rat eyecup/RPE microsomes", "T1 sequence (Q9JI61 1-231)": "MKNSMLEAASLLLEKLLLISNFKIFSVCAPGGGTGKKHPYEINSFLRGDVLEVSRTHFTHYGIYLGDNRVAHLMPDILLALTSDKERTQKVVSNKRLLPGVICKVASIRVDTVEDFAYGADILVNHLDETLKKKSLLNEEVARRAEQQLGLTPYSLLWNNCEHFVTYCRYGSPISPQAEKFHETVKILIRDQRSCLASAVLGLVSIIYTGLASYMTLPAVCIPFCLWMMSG", "assay": "Retinyl ester production by LRAT in rat RPE microsomes", "assay_type": "biochemical", "conditions": "1 mM PBN", "method": "Isomerohydrolase activity assay and PBN inhibition—Rats were sacrificed, and eyes were enucleated and dissected to remove the anterior part including lens, vitreous, and retina. The remaining eyecups containing RPE were sonicated 3 times for 20 seconds in a cold 0.32 M sucrose/0.1 M sodium phosphate buffer (pH 7.4). The homogenate was centrifuged (20 minutes, 20,000 g) to sediment sclera, unbroken cells, nuclei and mitochondria. The obtained supernatant was recentrifuged (1 hour, 100,000 g), and the microsomal pellet was resuspended in 10 mM 1,3-bis[tris(hydroxymethyl)-methylamino]propane (BTP), (pH 8.0) and 100 mM NaCl, and stored at −80° C. All-trans-[11,12-^3H]-retinol (1 mCi/ml, 45.5 Ci/mmol, American Radiolabeled Chemical, Inc., St. Louis, Mo.) in N,N-dimethyl formamide was used as the substrate for the isomerohydrolase assay. […] The upper layer was collected, and the generated retinoids were analyzed by normal phase HPLC as described (38). […] The isomerohydrolase activity was calculated from the area of the 11-cis-retinol peak using Radiomatic 610TR software (Perkin Elmer, Boston, Mass.) with synthetic 11-cis-[^3H]-retinol as a standard. […] The inhibition constant for PBN was calculated from the following equation: […] where [I]=concentration of PBN, Vm^i=maximal velocity in the presence of Vm=maximal velocity in the absence of PBN. […]"}, "[3]": {"tested_on": "mouse retina", "assay": "Light-damage protection by topical PBN eye drops in mice (ERG)", "assay_type": "in vivo", "conditions": "10% PBN eye drop in V1 or V2; 3,000 lux 6 h; ERG five days after", "method": "After topical application of PBN, light-damage was done at 3,000 lux for 6 h. ERG response were recorded five days after light-damage. Two vehicles were used to solubilize and make 10% PBN eye drop formulation for topical application on mouse eye, vehicle 1 (V-1) and vehicle 2 (V-2).\nAfter topical application of PBN, light-damage was done at 3,000 lux for 6 h. ERG responses were recorded five days after light-damage. Two vehicles were used to solubilize and make the 10% PBN eye drop formulation for topical application on mouse eyes, vehicle 1 (V-1) and vehicle 2 (V-2). […] Vehicle 1 contains 10 mM potassium borate/bicarbonate buffer (pH 7.2), glycerine, 1.0%, carboxymethylcellulose 0.3%, benzyl alcohol 0.3%, and 30% 1-methyl-2-pyrrolidinone (a solubilizing enhancer, a.k.a., N-Methyl-2-Pyrrolidone—“NMP”). Vehicle 2 contains 137 mM sodium chloride, 2.7 mM potassium chloride in 10 mM phosphate buffer (pH 7.4), and 30% 1-methyl-2-pyrrolidinone."}},
  "data": [
    {"compound": "CC(C)(C)/[N+]([O-])=C/c1ccccc1", "note": "[Compound 1, α-phenyl-N-tert-butyl nitrone]", "values": [
      {"measurement": "effect on cone function", "setting": "[1]", "result": "not affected"},
      {"measurement": "LRAT inhibition (production of retinyl ester)", "setting": "[2]", "result": "not inhibited"},
      {"measurement": "rod function (scotopic A-wave) after light-damage", "setting": "[3]", "result": "significant restoration of rod function"}
    ]}
  ]
}
